According to US20220354818A1, “METHODS FOR TREATING BRAIN INJURY OR COGNITIVE DYSFUNCTION BY PHARMACOLOGICAL ENHANCMENT OF M-TYPE POTASSIUM ION CURRENTS IN NEURONS” (Advanced Neuroresearch Therapeutics LLC, priority 2019, published 2022):
“Also recorded” adds a separate entry of the source.

Legend:
[1] = tested on: mice subjected to CCCI, subthreshold pilocarpine; test: Pilocarpine-induced seizure susceptibility after CCCI; type: in vivo, mouse; conditions: three subthreshold pilocarpine doses on fifth day after CCCI; RTG 1.2 mg/kg i.p. 30 min post-TBI
Method: Pilocarpine is a cholinomimetic drug widely used as a chemo-convulsant in animal models to induce status epilepticus. To minimize pilocarpine-induced peripheral cholinergic effects and mortality, animals were pretreated with scopolamine methyl nitrate (i.p. 1 mg/kg; MP Biomedicals) 30 minutes prior to pilocarpine injection. Both drugs were diluted in sterile 0.9% (w/v) saline. Immediately after pilocarpine injection, cortical activity was monitored for 24 hours by video/EEG recording.

neurons = test: Fluoro Jade B staining of neuronal cell death after CCCI; type: in vivo, mouse; conditions: six days after CCCI; RTG 30 minutes post-TBI
Method: Flouro Jade B (FJB) staining was performed to assay neuronal cell death histologically and detect the degree of neurodegeneration six days after CCCI. Staining was performed as previously described.
Six days after CCCI, mice were euthanized via transcardial perfusion with PBS followed by 4% (w/v) paraformaldehyde (PFA). Brains were removed, post-fixed overnight in 4% PFA (Electron Microscopy Sciences), transferred into 30% (w/v) sucrose in PBS and kept at 4° C. for 3 days. […]
Ipsilateral cortical images (fluorescence images of FJB and counterstained DAPI) were taken by a Nikon Eclipse Ti with camera coolSNAP HQ^2 (confocal) microscope using a 20× objective (N.A. 0.75). Fluorescence excitation-emission for Fluoro Jade and DAPI were 470/40-500 and 350/50-460, respectively.
Cell count was obtained by nonbiased automatic quantification with ImageJ/FIJI (NIH, USA) particle analysis. […] After background subtraction and image threshold (1.05%), FIB positive cells were detected using the “analyze particles” (size: 20-100, circularity: 0.00-1.00) function of ImageJ. These parameters determined the pixel size and circularity of the acceptable ROIs and were used to identify cell bodies automatically.

[2] = tested on: TAR DNA-binding protein 43 (TDP-43); test: TDP-43 immunoblotting and immunohistochemistry after rbTBI (CTE marker); type: in vivo, mouse
Method: Levels of TDP-43 were first analyzed by immunoblotting experiments performed as previously described. Cortical and hippocampal samples were collected when the mice were 26-28 months of age.
Complementary to the immunoblot experiments, immunohistochemistry staining of TDP-43 was performed as previously described. Left hemisphere samples were removed and fixed overnight in 4% paraformaldehyde (Electron Microscopy Sciences). Subsequently, samples were transferred into 30% (w/v) sucrose in PBS and kept for 3 days at 4° C. before they were frozen in Tissue-Plus O.C.T. Compound (Fisher Scientific) using 2-methylbutane immersed in dry ice. Samples were stored at −80° C. until cross-sectioning.
20 μm thick coronal sections of the prefrontal cortex (PFC) were mounted on Superfrost Plus microscope slides (Fisher Scientific) previously coated with gelatin (Sigma). […] Images were taken in the PFC layer II at 40× magnification using an iXon ultra EMCCD Andor camera attached to a Nikon Eclipse TE2000-U microscope, with a fixed exposition time of 200 ms, in the 16-bit readout mode, with 2 MHz speed, and a pre-amplifier gain of 3. The mean and maximum fluorescence signal was obtained by automatic quantification with ImageJ (National Institutes of Health, USA). […]
Samples used in the immunoblotting and the immunohistochemistry experiments were from the EEG-monitored mice and from the above independent cohort. […]

[3] = tested on: mice subjected to one blunt TBI, pentylenetetrazol (PTZ); test: PTZ-induced seizure susceptibility after one blunt TBI (CCCI); type: in vivo, mouse; conditions: RTG at 1 mg/kg; PTZ 35 mg/kg s.c. fifth day post-TBI
Excerpt: Stimulation with PTZ induced the occurrence of clonic and tonic-clonic seizures in TBI-subjected mice.

M-channels = test: Voltage dependence of M-channels
[4] = tested on: C57BL/6J mice subjected to three blast TBIs; test: Repetitive blast TBI (rbTBI): post-traumatic seizures and post-traumatic epilepsy, video/EEG
Method: Adult 12-week-old male C57BL/6J mice (Jackson Labs, Bar Harbor, Me.) were group-housed with food and water ad libitum in 12:12 hour light: dark cycle. […] Experimenters were blinded to group allocation during data collection and analysis.
The shock tube (Applied Research Associates) had and inner diameter of 17 inches and a about 36-inch end opening. […] Before reaching the mice, the air blast wave passed through a 0.016-inch-thick aluminum membrane of alloy AL-2200. Pencil probe gauges (PCB Piezotronics) were placed beside the mice to monitor the pressure of the air-driven blast wave. […] During the procedure, mice were anesthetized using ketamine (25-75 mg/kg) and dexmedetomidine (0.25 mg/kg). The animals were subjected to three directed head-on blast TBI with 24 hours intervals between each injury. On the first day of blast exposure, animals were given a subcutaneous injection of buprenorphine SR (1.2 mg/kg) in the interscapular region.
Sham animals were anesthetized and placed in the shock tube but were not subjected to the rbTBI. After each blast exposure, mice were given one subcutaneous injection of atipamezole (1 mg/kg) to reverse the anesthesia and placed into a recovery chamber with controlled temperature. On the following days, mice were monitored for signs of pain and distress.
Mice from the “TBI” group were injected with the same volume of vehicle solution only.
Seizures were identified visually by the investigator's analysis of the video/EEG records. The number of seizures, latency to the first seizure, seizure duration, and percentage of mice from each group that had seizures were quantified.

Q: `CCOC(=O)Nc1ccc(NCc2ccc(F)cc2)cc1N` [RTG, 2-amino-4-(4-fluorobenzylamino)-1-ethoxycarbonylaminobenzene] was tested. Which “pilocarpine-induced abnormal spike activity” value [1] did it give?
A: significant reduction of pilocarpine-induced abnormal spike activity

Q: What about the “Fluoro Jade B labeling of neurons (neuronal death)” value (neurons) of the same compound?
A: significantly higher FJB staining as compared to TBI+RTG cortical slices; also recorded: labeling of brain neurons by FJB was minimal

Q: What about the “TDP-43 expression in the cerebral cortex” value ([2]; 2 years after TBIs, immunoblot and immunofluorescence) of the same compound?
A: reduced TDP-43 as compared to the Blast cohort

Q: What about the “phosphorylation levels of TDP-43” value ([2]; cerebral cortex) of the same compound?
A: Neither TBI, nor RTG treatment, changed the phosphorylation levels of TDP-43

Q: And the “occurrence of PTZ-induced seizures” value [3]?
A: completely blocked the occurrence of PTZ-induced seizures

Q: And the “voltage dependence of M-channels” value (M-channels)?
A: shifting the voltage dependence of M-channels towards more negative potentials

Q: What about the “duration of post-traumatic seizures (PTS)” value ([4]; rbTBI, RTG 1.2 mg/kg i.p. 30 minutes after each blast, second to fourth day after TBIs) of the same compound?
A: significantly reduced duration of the PTS

Q: What about the “mice experiencing seizures (PTE)” value ([4]; rbTBI, RTG 30 minutes after each TBI, first to ninth month after final rbTBI) of the same compound?
A: about 20%

Q: And the “severity of post-traumatic seizures (EEG amplitude)” value ([4]; rbTBI, RTG 30 minutes after each blast)?
A: less severe

Q: What about the “mice that developed post-traumatic epilepsy (PTE)” value ([4]; three blast TBIs one day apart, RTG 30 min after each, 1 month to 12 months after injury) of the same compound?
A: 25%
